Read-outs that look alike come from different tables or passages of the source.
How the values were obtained:
[1] = test system: STMN2 (WT STMN2-NLuc SH-SY5Y cells); test: STMN2 nanoluciferase assay in WT SH-SY5Y cells (Table A: WT TDP-32; Table B: WT HD Luciferase); assay type: cell-based, human; conditions: WT cell line
Method: (§1) Neuroblastoma cells (ATCC) were cultured in DMEM/F12 (Gibco) supplemented with 10% fetal-bovine serum (Omega) and 1% penicillin-streptomycin (Gibco) at 37 °C with 5% CO2. For knockdown experiments, cells were transfected with SMARTpool ON-TARGETplus siRNA or control siRNA pool (D001810-10) (GE Dharmacon) at a final concentration of 50 nM, for 96 h in two doses (0, 24 h), after complexing with Lipofectamin RNAiMAX (Invitrogen) in Opti-MEM (Gibco) for 10 min.
(§2) WT and TDP-mut (N352S) SH-SY5Y cells were edited using CRISPR-Cas9 to express Nanoluciferase at the C-terminus of both endogenous STMN2 alleles. A single guided RNA targeting STMN2 C-terminus was designed (Benchling webtool) and cloned into pSpCas9-2A-green fluorescent protein (GFP) plasmid (px458-Addgene) using the BbsI restriction site. The sequence for guided RNA targeting STMN2 was: […]. For the repair template, overlapping fragments of 800 bp STMN2 homology arms flanking Nanoluciferase (NLuc, Promega) were generated and ligated into pUC57 backbone. A 42 bp GS-linker was also included 5′ to NLuc to prevent steric hindrance of the reporter to the final STMN2 exon. Fragments were ligated using Gibson Assembly and nucleofected simultaneously with pSpCas9-2A-GFP-gRNA plasmid using the Amaxa Nucleofector (assay A-023). Forty-eight hours following electroporation, cells were collected, and GFP-positive cells sorted and single-cell seeded into 96-well plates using the SH800S Sony cell sorter. Individual clones were expanded and DNA was extracted for PCR amplification of the STMN2 Ex5 genomic locus using primers within NLuc and outside the STMN2 5′ homology arm to confirm presence of the insert. The entire STMN2 coding region and all exon-intron junctions (>500-bp length of each intronic region) were then sequenced to verify the absence of any additional DNA alteration. qPCR analysis was performed with a wild-type isogenic SH-SY5Y cell line that had undergone the mutagenesis attempt but not acquired the insertion mutation during the original screening process.
(§3) TDP-mut STMN2-NLuc SH-SY5Y cells were used in small-molecule screening at ICCB-Longwood. 3000 cells/well were plated in white 384-well plates using a 50 ul sample volume. 24 hours after plating, compounds were added using 100 nl pin transfer. 24 hours later, 25 ul NLuc assay was added to each well according to manufacturer instructions (Promega, Cat #). Plates were shaken for 1 min prior to luminescence readings using EnVision2 machine. DMSO-only and WT STMN2-NLuc cells were included as negative and positive controls respectively on each plate, producing an average Z′score of ~0.7 across the screen. Each library plate was conducted in duplicate, and Z-scores calculated for each compound. For subsequent validation experiments, cell numbers in each well were quantified by hoescht staining at 1 μg/ml for 15 mins at 37C in black, clear bottom plates, prior to imaging at 4× using automated microscopy (ImageXpressMicro). Nuclei were then counted using a custom algorithm, and luciferase assay run as above. Luminescence results were then normalised against cell counts as RLU/cell.
(§4) Each compound was tested in triplicate in log doses ranging 0.01 μM−10 μM. The values are represented in luminescence normalized to the number of cells in the well, wherein darker grey correlates to higher RLU per cell and higher STMN2 protein expression.

[2] = test system: STMN2 (TDP-mut (N352S) STMN2-NLuc SH-SY5Y cells); test: STMN2 nanoluciferase assay in TDP-43 mutant SH-SY5Y cells (Table A: mut TDP-43; Table B: mut HD Luciferase); assay type: cell-based, human; conditions: mutant TDP-43 cell line
Method: as §1, §2, §3, §4

[3] = Homo sapiens, SH-SY5Y, Table B, read-out: EC50, WT HD Luciferase
[4] = Homo sapiens, SH-SY5Y, Table B, read-out: EC50, mut HD Luciferase
[5] = Homo sapiens, SH-SY5Y, Table A, read-out: EC50, WT TDP-32
[6] = Homo sapiens, SH-SY5Y, Table B, Emax
[7] = Homo sapiens, SH-SY5Y, Table A, read-out: EC50, mut TDP-43
[8] = Table B, read-out: EC50, WT HD Luciferase
[9] = Table B, read-out: EC50, mut HD Luciferase

| Compound | EC50 [1, 3] [nM] | EC50 [2, 4] [nM] | EC50 [1, 5] [nM] | maximal fold induction [1, 6] | EC50 [2, 7] [nM] | EC50 [1, 8] [nM] | HD Luciferase (mut, Emax) ([2]; Table B) | EC50 [2, 9] [nM] | HD Luciferase (WT, Emax) ([1]; Table B, Emax) |
| --- | --- | --- | --- | --- | --- | --- | --- | --- | --- |
| O=C(O)C[C@H](O)C[C@H](O)/C=C/c1c(-c2ccc(F)cc2Cl)cc(C2CCC2)nc1C1CC1 [II-7, (3R,5S,E)-7-(4-(2-chloro-4-fluorophenyl)-6-cyclobutyl-2-cyclopropylpyridin-3-yl)-3,5-dihydroxyhept-6-enoic acid] | 10 to 50 | 50 to 100 | – | – | – | – | – | – | – |
| Cc1csc2c(-c3ccc(F)cc3)c(/C=C/[C@@H](O)C[C@@H](O)CC(=O)O)c(C3CC3)nc12 [Example I-1, (3R,5S,E)-7-(5-cyclopropyl-7-(4-fluorophenyl)-3-methylthieno[3,2-b]pyridin-6-yl)-3,5-dihydroxyhept-6-enoic acid] | 10 to 50 | ≤ 10 | ≤ 100 | 1.5 to 1.75 | ≤ 100 | – | – | – | – |
| O=C(O)C[C@H](O)C[C@H](O)/C=C/c1c(C2CC2)nc(C2CC2)c(COC2CC2)c1-c1ccc(Cl)cc1F [II-23, (3R,5S,E)-7-(4-(4-chloro-2-fluorophenyl)-5-(cyclopropoxymethyl)-2,6-dicyclopropylpyridin-3-yl)-3,5-dihydroxyhept-6-enoic acid] | 10 to 50 | 10 to 50 | – | – | – | – | – | – | – |
| Cc1cc2c(-c3ccc(F)cc3)c(/C=C/[C@@H](O)C[C@@H](O)CC(=O)O)c(C3CC3)nc2s1 [Example I-5a, (3R,5S,E)-7-(6-cyclopropyl-4-(4-fluorophenyl)-2-methylthieno[2,3-b]pyridin-5-yl)-3,5-dihydroxyhept-6-enoic acid] | – | – | – | 1 to 1.25 | – | ≥ 500 | * (means≥1 and <1.25) | ≥ 500 | – |
| O=C(O)C[C@H](O)C[C@H](O)/C=C/c1c(-c2ccc(F)cc2Cl)cc(C2CC2)nc1C1CC1 [II-8, (3R,5S,E)-7-(4-(2-chloro-4-fluorophenyl)-2,6-dicyclopropylpyridin-3-yl)-3,5-dihydroxyhept-6-enoic acid] | 10 to 50 | 10 to 50 | 100 to 500 | – | 100 to 500 | – | – | – | – |
| COCc1c(C2CCC2)nc(C2CCC2)c(/C=C/[C@@H](O)C[C@@H](O)CC(=O)O)c1-c1ccc(F)cc1 [II-6, (3R,5S,E)-7-(2,6-dicyclobutyl-4-(4-fluorophenyl)-5-(methoxymethyl)pyridin-3-yl)-3,5-dihydroxyhept-6-enoic acid] | 10 to 50 | 10 to 50 | – | – | – | – | – | – | – |
| O=C(O)C[C@H](O)C[C@H](O)/C=C/c1c(C2CC2)nc2ccsc2c1-c1ccc(F)cc1 [Example I-4, (3R,5S,E)-7-(5-cyclopropyl-7-(4-fluorophenyl)thieno[3,2-b]pyridin-6-yl)-3,5-dihydroxyhept-6-enoic acid] | 10 to 50 | 10 to 50 | 100 to 500 | – | 100 to 500 | – | – | – | – |
| COCc1c(C23CC(C2)C3)nc(C2CC2)c(/C=C/[C@@H](O)C[C@@H](O)CC(=O)O)c1-c1ccc(F)cc1Cl [II-1, (3R,5S,E)-7-(6-(bicyclo[1.1.1]pentan-1-yl)-4-(2-chloro-4-fluorophenyl)-2-cyclopropyl-5-(methoxymethyl)pyridin-3-yl)-3,5-dihydroxyhept-6-enoic acid] | 10 to 50 | 10 to 50 | 100 to 500 | – | 100 to 500 | – | **** (means≥1.5 and <1.75) | – | – |
| O=C(O)C[C@H](O)C[C@H](O)/C=C/c1c(-c2ccc(F)cc2Cl)cc(C2CC2)nc1C1CCC1 [II-27, (3R,5S,E)-7-(4-(2-chloro-4-fluorophenyl)-2-cyclobutyl-6-cyclopropylpyridin-3-yl)-3,5-dihydroxyhept-6-enoic acid] | ≥ 500 | ≥ 500 | – | 1 to 1.25 | – | – | * (means≥1 and <1.25) | – | – |
| Cc1nc2cc(C3CC3)c(/C=C/[C@@H](O)C[C@@H](O)CC(=O)O)c(-c3ccc(F)cc3)c2s1 [Example I-8, (3R,5S,E)-7-(5-cyclopropyl-7-(4-fluorophenyl)-2-methylbenzo[d]thiazol-6-yl)-3,5-dihydroxyhept-6-enoic acid] | 10 to 50 | 10 to 50 | 100 to 500 | 1.25 to 1.5 | 100 to 500 | – | – | – | – |
| Cc1cc2c(-c3ccc(F)cc3)c(/C=C/[C@@H](O)C[C@@H](O)CC(=O)O)c(C3CC3)nc2s1 [Example I-5b, (3R,5S,E)-7-(6-cyclopropyl-4-(4-fluorophenyl)-2-methylthieno[2,3-b]pyridin-5-yl)-3,5-dihydroxyhept-6-enoic acid] | – | – | – | – | – | 100 to 500 | ** (means≥1.25 and <1.5) | 50 to 100 | ** (means≥1.25 and <1.5) |
| COCc1c(C2CCC2)nc(C2CCC2)c(/C=C/[C@@H](O)C[C@@H](O)CC(=O)O)c1-c1ccc(F)cc1Cl [II-3, (3R,5S,E)-7-(4-(2-chloro-4-fluorophenyl)-2,6-dicyclobutyl-5-(methoxymethyl)pyridin-3-yl)-3,5-dihydroxyhept-6-enoic acid] | 100 to 500 | 100 to 500 | 500 to 1000 | 1.25 to 1.5 | 500 to 1000 | – | ** (means≥1.25 and <1.5) | – | – |
| O=C(O)C[C@H](O)C[C@H](O)/C=C/c1c(-c2ccc(F)cc2)cc(C23CC(C2)C3)nc1C1CC1 [II-16, (3R,5S,E)-7-(6-(bicyclo[1.1.1]pentan-1-yl)-2-cyclopropyl-4-(4-fluorophenyl)pyridin-3-yl)-3,5-dihydroxyhept-6-enoic acid] | 50 to 100 | 100 to 500 | – | – | – | – | ** (means≥1.25 and <1.5) | – | – |
| Cc1csc2nc(C3CC3)c(/C=C/[C@@H](O)C[C@@H](O)CC(=O)O)c(-c3ccc(Cl)cc3)c12 [Example I-34, (3R,5S,E)-7-(4-(4-chlorophenyl)-6-cyclopropyl-3-methylthieno[2,3-b]pyridin-5-yl)-3,5-dihydroxyhept-6-enoic acid] | 100 to 500 | 50 to 100 | – | 1.5 to 1.75 | – | – | – | – | – |
| COCc1c(C2CCC2)nc(C2CC2)c(/C=C/[C@@H](O)C[C@@H](O)CC(=O)O)c1-c1ccc(F)cc1 [II-5, (3R,5S,E)-7-(6-cyclobutyl-2-cyclopropyl-4-(4-fluorophenyl)-5-(methoxymethyl)pyridin-3-yl)-3,5-dihydroxy hept-6-enoic acid] | ≤ 10 | ≤ 10 | ≤ 100 | – | ≤ 100 | – | – | – | – |
| Cc1cc(F)ccc1-c1cc(C23CC(C2)C3)nc(C2CC2)c1/C=C/[C@@H](O)C[C@@H](O)CC(=O)O [II-14, (3R,5S,E)-7-(6-(bicyclo[1.1.1]pentan-1-yl)-2-cyclopropyl-4-(4-fluoro-2-methylphenyl)pyridin-3-yl)-3,5-dihydroxyhept-6-enoic acid] | 100 to 500 | 100 to 500 | – | – | – | – | – | – | – |
| COCc1c(C2CC2)nc(C2CC2)c(/C=C/[C@@H](O)C[C@@H](O)CC(=O)O)c1-c1ccc(F)cc1C [II-10, (3R,5S,E)-7-(2,6-dicyclopropyl-4-(4-fluoro-2-methylphenyl)-5-(methoxymethyl)pyridin-3-yl)-3,5-dihydroxyhept-6-enoic acid] | ≤ 10 | ≤ 10 | – | – | – | – | – | – | – |
| Cc1csc2c(-c3ccc(F)cc3)c(/C=C/[C@@H](O)C[C@@H](O)CC(=O)N(C)C)c(C3CC3)nc12 [Example I-26, (3R,5S,E)-7-(5-cyclopropyl-7-(4-fluorophenyl)-3-methylthieno[3,2-b]pyridin-6-yl)-3,5-dihydroxy-N,N-dimethylhept-6-enamide] | ≥ 500 | ≥ 500 | – | 1 to 1.25 | – | – | * (means≥1 and <1.25) | – | – |
